According to PMC6273687, “Design, Synthesis and Biological Evaluation of Novel Primaquine-Cinnamic Acid Conjugates of the Amide and Acylsemicarbazide Type” (Molecules, 2016):

Key:
[1] = Inhibition of linoleic acid peroxidation (AAPH-induced); details: 5 × 10^−5 M
Description: For initiating the lipid peroxidation free radical AAPH was used. Final solution in the UV cuvette consisted of 10 μL linoleate sodium solution (c = 16 mM), 0.93 mL phosphate buffer (c = 0.05 M), pH 7.4, thermostated at 37 °C. 50 μL AAPH solution (c = 40 mM) and 10 μL of the tested compounds were added. The experiment was performed at 37 °C under air. The oxidation of linoleic acid sodium salt was monitored at 234 nm. The assays were repeated at least in triplicate and the standard deviation of absorbance was less than 10% of the mean. Trolox was used under the same experimental conditions as a reference compound.

[2] = Interaction with the stable radical DPPH (reducing ability)
Description: To a solution of DPPH in absolute ethanol the appropriate volume of the compounds (50 or 100 µM final concentrations) dissolved in DMSO was added. The absorbance was recorded at 517 nm after 20 and 60 min at room temperature. The experiments were repeated at least in triplicate and the standard deviation of absorbance was less than 10% of the mean. NDGA was used under the same experimental conditions as a reference compound.

SMILES | LP Inhibition (%) [1] [%] | DPPH-reducing ability RA (%) ([2]; 1 × 10^−4 M, 20 min) | DPPH-reducing ability RA (%) ([2]; 1 × 10^−4 M, 60 min) | DPPH-reducing ability RA (%) ([2]; 5 × 10^−5 M, 20 min) | DPPH-reducing ability RA (%) ([2]; 5 × 10^−5 M, 60 min)
Cc1c(C)c2c(c(C)c1O)CCC(C)(C(=O)O)O2 (centres unmarked) [Trolox, 6-hydroxy-2,5,7,8-tetramethylchroman-2-carboxylic acid, reference compound] | 88 |  |  |  | 
CC(Cc1ccc(O)c(O)c1)C(C)Cc1ccc(O)c(O)c1 (centres unmarked) [NDGA, nordihydroguaiaretic acid, reference compound] |  | 89 | 94 | 83 | 87
